Results reported in PubChem BioAssay (NCI).
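Dose response: 5 concentrations. Exposure: 48 h. Format: 96-well plates. Endpoint: linear interpolation; highest concentration if not reached. Abbreviation: GI50, concentration required for 50% inhibition of growth. TGI: total growth inhibition.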

Legend:
Assay in all cases: NCI tumour cell line growth inhibition, 48 h
[1] = system: 786-0 renal
[2] = system: A498 renal
[3] = system: A549 NSCLC
[4] = system: ACHN renal
[5] = system: BT-549 breast
[6] = system: CAKI-1 renal
[7] = system: CCRF-CEM leukemia
[8] = system: COLO 205 colon
[9] = system: DU-145 prostate
[10] = system: EKVX NSCLC
[11] = system: HCC-2998 colon
[12] = system: HCT-116 colon
[13] = system: HCT-15 colon
[14] = system: HL-60(TB) leukemia
[15] = system: HOP-62 NSCLC
[16] = system: HOP-92 NSCLC
[17] = system: HS 578T breast
[18] = system: HT29 colon
[19] = system: IGROV1 ovarian
[20] = system: K-562 leukemia
[21] = system: KM12 colon
[22] = system: M14 melanoma
[23] = system: MALME-3M melanoma
[24] = system: MCF7 breast
[25] = system: MDA-MB-231 breast
[26] = system: MDA-MB-435
[27] = system: MOLT-4 leukemia
[28] = system: NCI-H226 lung
[29] = system: NCI-H460 lung
[30] = system: NCI-H522 lung
[31] = system: NCI/ADR-RES ovarian
[32] = system: OVCAR-3 ovarian
[33] = system: OVCAR-4 ovarian
[34] = system: OVCAR-5 ovarian
[35] = system: OVCAR-8 ovarian
[36] = system: PC-3 prostate
[37] = system: RPMI-8226 leukemia
[38] = system: RXF 393 renal
[39] = system: SF-268 CNS
[40] = system: SF-295 CNS
[41] = system: SF-539 CNS
[42] = system: SK-MEL-2 melanoma
[43] = system: SK-MEL-28 melanoma
[44] = system: SK-MEL-5 melanoma
[45] = system: SK-OV-3 ovarian
[46] = system: SN12C renal
[47] = system: SNB-19 CNS
[48] = system: SNB-75 CNS
[49] = system: SR leukemia
[50] = system: SW-620 colon
[51] = system: T-47D breast
[52] = system: TK-10 renal
[53] = system: U251 CNS
[54] = system: UACC-257 melanoma
[55] = system: UACC-62 melanoma
[56] = system: UO-31 renal

Compound: COc1cccc(N2CCN(c3ncnc4c3[nH]c3ccc(F)cc34)C[C@@H]2C)c1
- GI50 [1]: 2050 nM
- TGI [1]: 5240 nM
- GI50 [2]: 2850 nM
- TGI [2]: 8030 nM
- GI50 [3]: 1900 nM
- TGI [3]: 5960 nM
- GI50 [4]: 1490 nM
- TGI [4]: 3720 nM
- GI50 [5]: 343 nM
- TGI [5]: 1430 nM
- GI50 [6]: 1670 nM
- TGI [6]: 5580 nM
- GI50 [7]: 603 nM
- TGI [7]: > 100000 nM
- GI50 [8]: 1430 nM
- TGI [8]: 2800 nM
- GI50 [9]: 1380 nM
- TGI [9]: 2670 nM
- GI50 [10]: 1880 nM
- TGI [10]: 6160 nM
- GI50 [11]: 2610 nM
- TGI [11]: 8320 nM
- GI50 [12]: 1220 nM
- TGI [12]: 3130 nM
- GI50 [13]: 1750 nM
- TGI [13]: 4420 nM
- GI50 [14]: 1250 nM
- TGI [14]: 5190 nM
- GI50 [15]: 1230 nM
- TGI [15]: 2760 nM
- GI50 [16]: 2280 nM
- TGI [16]: 6920 nM
- GI50 [17]: 1770 nM
- TGI [17]: 8520 nM
- GI50 [18]: 2790 nM
- TGI [18]: 9850 nM
- GI50 [19]: 1710 nM
- TGI [19]: 4670 nM
- GI50 [20]: 1120 nM
- TGI [20]: > 100000 nM
- GI50 [21]: 1220 nM
- TGI [21]: 2730 nM
- GI50 [22]: 1360 nM
- TGI [22]: 2730 nM
- GI50 [23]: 1360 nM
- TGI [23]: 3430 nM
- GI50 [24]: 1530 nM
- TGI [24]: 3450 nM
- GI50 [25]: 2270 nM
- TGI [25]: 6470 nM
- GI50 [26]: 1590 nM
- TGI [26]: 3180 nM
- GI50 [27]: 999 nM
- TGI [27]: 4650 nM
- GI50 [28]: 1320 nM
- TGI [28]: 3030 nM
- GI50 [29]: 2530 nM
- TGI [29]: 7340 nM
- GI50 [30]: 592 nM
- TGI [30]: 2020 nM
- GI50 [31]: 1210 nM
- TGI [31]: 4350 nM
- GI50 [32]: 1500 nM
- TGI [32]: 5590 nM
- GI50 [33]: 852 nM
- TGI [33]: 3860 nM
- GI50 [34]: 2280 nM
- TGI [34]: 6160 nM
- GI50 [35]: 762 nM
- TGI [35]: 2040 nM
- GI50 [36]: 912 nM
- TGI [36]: 3540 nM
- GI50 [37]: 492 nM
- TGI [37]: 3600 nM
- GI50 [38]: 2240 nM
- TGI [38]: 5450 nM
- GI50 [39]: 1980 nM
- TGI [39]: 6720 nM
- GI50 [40]: 1610 nM
- TGI [40]: 3350 nM
- GI50 [41]: 2270 nM
- TGI [41]: 5650 nM
- GI50 [42]: 1440 nM
- TGI [42]: 2820 nM
- GI50 [43]: 1470 nM
- TGI [43]: 2910 nM
- GI50 [44]: 1310 nM
- TGI [44]: 2580 nM
- GI50 [45]: 2430 nM
- TGI [45]: 7470 nM
- GI50 [46]: 1170 nM
- TGI [46]: 2460 nM
- GI50 [47]: 2550 nM
- TGI [47]: 6900 nM
- GI50 [48]: 1690 nM
- TGI [48]: 3060 nM
- GI50 [49]: 2710 nM
- TGI [49]: > 100000 nM
- GI50 [50]: 2270 nM
- TGI [50]: 6070 nM
- GI50 [51]: 310 nM
- TGI [51]: 1640 nM
- GI50 [52]: 2140 nM
- TGI [52]: 4420 nM
- GI50 [53]: 2280 nM
- TGI [53]: 6080 nM
- GI50 [54]: 1880 nM
- TGI [54]: 3620 nM
- GI50 [55]: 716 nM
- TGI [55]: 2120 nM
- GI50 [56]: 467 nM
- TGI [56]: 1680 nM

Compound: O=C(CSc1nnc(-c2ccc(Cl)cc2)n1-c1ccccc1)Nc1ccc(Br)cc1
- GI50 [5]: > 50000 nM
- TGI [5]: > 50000 nM
- GI50 [7]: > 50000 nM
- TGI [7]: > 50000 nM
- GI50 [8]: > 50000 nM
- TGI [8]: > 50000 nM
- GI50 [9]: > 50000 nM
- TGI [9]: > 50000 nM
- GI50 [11]: > 50000 nM
- TGI [11]: > 50000 nM
- GI50 [13]: > 50000 nM
- TGI [13]: > 50000 nM
- GI50 [14]: > 50000 nM
- TGI [14]: > 50000 nM
- GI50 [15]: 1870 nM
- TGI [15]: > 50000 nM
- GI50 [18]: > 50000 nM
- TGI [18]: > 50000 nM
- GI50 [21]: > 50000 nM
- TGI [21]: > 50000 nM
- GI50 [24]: > 50000 nM
- TGI [24]: > 50000 nM
- GI50 [26]: > 50000 nM
- TGI [26]: > 50000 nM
- GI50 [27]: > 50000 nM
- TGI [27]: > 50000 nM
- GI50 [36]: > 50000 nM
- TGI [36]: > 50000 nM
- GI50 [42]: > 50000 nM
- TGI [42]: > 50000 nM
- GI50 [47]: 1890 nM
- TGI [47]: > 50000 nM
- GI50 [50]: > 50000 nM
- TGI [50]: > 50000 nM
- GI50 [54]: > 50000 nM
- TGI [54]: > 50000 nM
